According to ChEMBL document CHEMBL1127439, “Structure-activity relationship studies of central nervous system agents. 13. 4-[3-(Benzotriazol-1-yl)propyl]-1-(2-methoxyphenyl)piperazine, a new putative 5-HT1A receptor antagonist, and its analogs” (J Med Chem, 1994):

What was measured:
Mus musculus [1] = assay: Effect on body temperature in mice at intraperitoneal dosage of 2 mg/kg, (compound administered 30 min before the test) after 45 min; assay type: functional
Mus musculus [2] = assay: Effect on body temperature in mice at intraperitoneal dosage of 1 mg/kg, (compound administered 30 min before the test) after 75 min; assay type: functional
Rattus norvegicus [3] = assay: Tested for the effect on 8-OH-DPAT-induced lower lip retraction (LLR) in rat at dosage of 4 mg/kg; assay type: functional
Mus musculus [4] = assay: Effect on body temperature in mice at intraperitoneal dosage of 8 mg/kg, (compound administered 30 min before the test) after 75 min; assay type: functional
Mus musculus [5] = assay: Effect on 8-OH-DPAT-induced hypothermia in mice (5 mg/kg) at intraperitoneal dosage of 1 mg/kg of compound after 45 mins; assay type: functional
Mus musculus [6] = assay: Effect on 8-OH-DPAT-induced hypothermia in mice (5 mg/kg) at intraperitoneal dosage of 8 mg/kg of compound after 30 mins; assay type: functional
Mus musculus [7] = assay: Effect on body temperature in mice at intraperitoneal dosage of 2 mg/kg, (compound administered 30 min before the test) after 75 min; assay type: functional
Rattus norvegicus [8] = organism: Rattus norvegicus; assay: Selectivity is the ratio between Ki values of 5-HT2 and 5-HT1A
Rattus norvegicus [9] = assay: Tested for the effect on 8-OH-DPAT-induced behavior in reserpine pretreated rat against flat body posture at dosage of 2 mg/kg; assay type: functional
Mus musculus [10] = assay: Effect on 8-OH-DPAT-induced hypothermia in mice (5 mg/kg) at intraperitoneal dosage of 2 mg/kg of compound after 45 mins; assay type: functional
[11] = target: Serotonin 2 (5-HT2) receptor (Rattus norvegicus, UniProt P30994+P08909+P14842); assay: Tested in vitro for receptor binding affinity against 5-hydroxytryptamine 2 receptor using radioligand [3H]ketanserin; assay type: protein assay
Mus musculus [12] = assay: Effect on 8-OH-DPAT-induced hypothermia in mice (5 mg/kg) at intraperitoneal dosage of 2 mg/kg of compound after 30 mins; assay type: functional
Rattus norvegicus [13] = assay: Tested for the effect on 8-OH-DPAT-induced behavior in reserpine pretreated rat against flat body posture at dosage of 8 mg/kg; assay type: functional
Mus musculus [14] = assay: Effect on body temperature in mice at intraperitoneal dosage of 4 mg/kg, (compound administered 30 min before the test) after 30 min; assay type: functional
Mus musculus [15] = assay: Effect on 8-OH-DPAT-induced hypothermia in mice (5 mg/kg) at intraperitoneal dosage of 1 mg/kg of compound after 60 mins; assay type: functional
Mus musculus [16] = assay: Effect on 8-OH-DPAT-induced hypothermia in mice (5 mg/kg) at intraperitoneal dosage of 8 mg/kg of compound after 15 mins; assay type: functional
Mus musculus [17] = assay: Effect on body temperature in mice at intraperitoneal dosage of 4 mg/kg, (compound administered 30 min before the test) after 75 min; assay type: functional
Mus musculus [18] = assay: Effect on body temperature in mice at intraperitoneal dosage of 4 mg/kg, (compound administered 30 min before the test) after 90 min; assay type: functional
Mus musculus [19] = assay: Effect on 8-OH-DPAT-induced hypothermia in mice (5 mg/kg) at intraperitoneal dosage of 1 mg/kg of compound after 30 mins; assay type: functional
Rattus norvegicus [20] = assay: Tested for the effect on 8-OH-DPAT-induced lower lip retraction (LLR) in rat at dosage of 16 mg/kg; assay type: functional
Rattus norvegicus [21] = assay: Tested for the effect on 8-OH-DPAT-induced lower lip retraction (LLR) in rat at dosage of 2 mg/kg; assay type: functional
Rattus norvegicus [22] = assay: Tested for the effect on 8-OH-DPAT-induced behavior in reserpine pretreated rat against flat body posture at dosage of 4 mg/kg; assay type: functional
Mus musculus [23] = assay: Effect on body temperature in mice at intraperitoneal dosage of 4 mg/kg, (compound administered 30 min before the test) after 60 min; assay type: functional
Mus musculus [24] = assay: Effect on body temperature in mice at intraperitoneal dosage of 4 mg/kg, (compound administered 30 min before the test) after 45 min; assay type: functional
Mus musculus [25] = assay: Effect on 8-OH-DPAT-induced hypothermia in mice (5 mg/kg) at intraperitoneal dosage of 4 mg/kg of compound after 30 mins; assay type: functional
Mus musculus [26] = assay: Effect on body temperature in mice at intraperitoneal dosage of 1 mg/kg, (compound administered 30 min before the test) after 45 min; assay type: functional
Rattus norvegicus [27] = assay: Tested for the effect on 8-OH-DPAT-induced lower lip retraction (LLR) in rat at dosage of 8 mg/kg; assay type: functional
Mus musculus [28] = assay: Effect on body temperature in mice at intraperitoneal dosage of 2 mg/kg, (compound administered 30 min before the test) after 30 min; assay type: functional
Mus musculus [29] = assay: Effect on body temperature in mice at intraperitoneal dosage of 1 mg/kg, (compound administered 30 min before the test) after 90 min; assay type: functional
Mus musculus [30] = assay: Effect on body temperature in mice at intraperitoneal dosage of 2 mg/kg, (compound administered 30 min before the test) after 90 min; assay type: functional
Mus musculus [31] = assay: Effect on 8-OH-DPAT-induced hypothermia in mice (5 mg/kg) at intraperitoneal dosage of 2 mg/kg of compound after 15 mins; assay type: functional
Rattus norvegicus [32] = assay: Tested for the induction of lower lip retraction (LLR) by the investigated compounds in rat at dosage of 8 mg/kg; assay type: functional
Mus musculus [33] = assay: Effect on 8-OH-DPAT-induced hypothermia in mice (5 mg/kg) at intraperitoneal dosage of 4 mg/kg of compound after 15 mins; assay type: functional
Rattus norvegicus [34] = assay: Tested for the effect on 8-OH-DPAT-induced behavior in reserpine pretreated rat against forepaw treading at dosage of 2 mg/kg; assay type: functional
Mus musculus [35] = assay: Effect on body temperature in mice at intraperitoneal dosage of 8 mg/kg, (compound administered 30 min before the test) after 60 min; assay type: functional
[36] = target: T1, 5-hydroxytryptamine receptor 1A (Rattus norvegicus, UniProt P19327); assay: Tested in vitro for receptor binding affinity against 5-hydroxytryptamine 1A receptor using radioligand [3H]8-OH-DPAT
T1 sequence (P19327 whole entry): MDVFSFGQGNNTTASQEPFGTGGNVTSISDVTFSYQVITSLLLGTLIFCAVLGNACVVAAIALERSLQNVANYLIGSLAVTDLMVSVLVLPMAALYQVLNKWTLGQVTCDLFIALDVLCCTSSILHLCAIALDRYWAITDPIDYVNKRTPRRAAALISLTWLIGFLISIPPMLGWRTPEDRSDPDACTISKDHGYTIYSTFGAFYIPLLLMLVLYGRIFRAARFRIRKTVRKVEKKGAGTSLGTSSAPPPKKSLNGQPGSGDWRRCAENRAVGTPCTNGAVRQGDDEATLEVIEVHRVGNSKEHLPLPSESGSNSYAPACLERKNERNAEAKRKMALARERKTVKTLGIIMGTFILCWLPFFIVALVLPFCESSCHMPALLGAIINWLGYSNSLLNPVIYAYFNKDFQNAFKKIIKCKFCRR

Rattus norvegicus [37] = assay: Tested for the effect on 8-OH-DPAT-induced behavior in reserpine pretreated rat against forepaw treading at dosage of 4 mg/kg; assay type: functional
Rattus norvegicus [38] = assay: Tested for the induction of lower lip retraction (LLR) by the investigated compounds in rat at dosage of 16 mg/kg; assay type: functional
Mus musculus [39] = assay: Effect on 8-OH-DPAT-induced hypothermia in mice (5 mg/kg) at intraperitoneal dosage of 8 mg/kg of compound after 60 mins; assay type: functional

`COc1ccccc1N1CCN(CCCn2nnc3ccccc32)CC1` was tested, and the Delta t (Mus musculus [1]) was 0.1 °C, the Delta t (Mus musculus [2]) was 0 °C and the LLR score (Rattus norvegicus [3]) was 1.1. It also gave a Delta t (Mus musculus [4]) of 0.2 °C, a Delta t (Mus musculus [5]) of 0.6 °C and a Delta t (Mus musculus [6]) of 0.4 °C. The Delta t (Mus musculus [7]) was 0.2 °C, the Selectivity (Rattus norvegicus [8]) was 69 and the Behavioral score (Rattus norvegicus [9]) was 14.8. The Delta t (Mus musculus [10]) was 0.1 °C, the Ki [11] was 1040 nM and the Delta t (Mus musculus [12]) was 0.2 °C. It also gave a Behavioral score (Rattus norvegicus [13]) of 8, a Delta t (Mus musculus [14]) of 0.4 °C and a Delta t (Mus musculus [15]) of 0.3 °C. It also gave a Delta t (Mus musculus [16]) of 0.3 °C, a Delta t (Mus musculus [17]) of 0 °C and a Delta t (Mus musculus [18]) of 0.2 °C. It also gave a Delta t (Mus musculus [19]) of 1.1 °C, an LLR score (Rattus norvegicus [20]) of 0.9 and an LLR score (Rattus norvegicus [21]) of 2.3. The Behavioral score (Rattus norvegicus [22]) was 11.5, the Delta t (Mus musculus [23]) was 0.1 °C and the Delta t (Mus musculus [24]) was 0.2 °C. It also gave a Delta t (Mus musculus [25]) of 0.1 °C, a Delta t (Mus musculus [26]) of 0.1 °C and an LLR score (Rattus norvegicus [27]) of 0.7. It also gave a Delta t (Mus musculus [28]) of 0.3 °C, a Delta t (Mus musculus [29]) of 0.1 °C and a Delta t (Mus musculus [30]) of 0.1 °C. It also gave a Delta t (Mus musculus [31]) of 0.4 °C, an LLR score (Rattus norvegicus [32]) of 0.1 and a Delta t (Mus musculus [33]) of 0.3 °C. For the same compound, the Behavioral score (Rattus norvegicus [34]) was 13.4, the Delta t (Mus musculus [35]) was 0.1 °C and the Ki [36] was 15 nM. The Behavioral score (Rattus norvegicus [37]) was 5.8, the LLR score (Rattus norvegicus [38]) was 0.6 and the Delta t (Mus musculus [39]) was 0.6 °C.
